Values after ≈ are worked out from the molar mass of the structure shown. Structures can show the parent of a compound that is named as a salt. Where two headings read alike, the source gives them in different places.
How the values were obtained:
[1] = system: Cryptococcus neoformans; test: in vitro antifungal susceptibility testing (MIC, MFC; broth macrodilution), Tables 1-7; assay type: cell-based; settings: for MIC: read-out: MIC80 (Minimum inhibitory concentration 80%); for MFC: read-out: MFC (Minimum fungicidal concentration)
From the text: (§1) The fungi that were employed included two reference strains, C. neoformans var. neoformans H99 and C. albicans A39 and the following clinical isolates: (1) two strains of fluconazole-resistant C. neoformans var. neoformans (135.95 and 114.96); (2) two strains of C. neoformans var. gattii (119.95 and 114.95); (3) two strains of fluconazole-resistant C. albicans (102.96 and 103.96); and (4) one strain each of Torulopsis glabrata (142.91), Candida parapsilosis (111.96), Candida krusei (132.91), C. tropicalis (110.96), Candida lusitaniae (111.92), Fusarium solani (152.89), Aspergillus fumigatus (168.95), and Aspergillus flavus (112.96). Antifungal susceptibility testing was performed using an RPMI-1640 medium (Sigma Chemical Co., St. Louis, Mo.) with glutamine, without sodium bicarbonate, and buffered at pH 7.0 with 0.165 M morpholine-propanesulfonic acid (MOPS).
(§2) In vitro susceptibility testing in the form of Minimum Inhibitory Concentration (MIC) experiments were performed using the broth macrodilution method according to the recommendations of the National Committee for Clinical Laboratory Standards (see 1995 manual). The only difference compared to the standardized procedure was the choice of drug dilutions ranging from 100 to 0.09 μg/ml. Briefly, this procedure specifies an inoculum grown at 35° C. and adjusted to a concentration of 0.5-2.5×10^3 CFU/ml with an incubation of the test performed at 35° C. and reading at 48 hours for all yeasts except for C. neoformans which is interpreted at 72 hr.
(§3) Minimum Fungicidal Concentration (MFC) experiments were adapted from a method by McGinnis (McGinnis, M. R., (1980) "Susceptibility testing and bioassay procedure", p. 431, Academic Press, Inc., New York). Briefly, 10 μl aliquots from tubes with growth inhibition were plated onto Sabouraud agar plates.
(§4) The fungi that were employed included two quality control reference strains, C. neoformans var. neoformansH99 and C. albicans A39 and the following clinical isolates: (1) four strains of C. neoformans var. neoformans (167.95; 135.95; 114.96; and 133.95) of which three were fluconazole-resistant>64 μg/ml (135.95; 114.96; and 133.95); (2) two strains of C. neoformans var. gattii (119.95 and 114.95); (3) two strains of fluconazole-resistant>64 μg/ml C. albicans (102.96 and 103.96); and (4) one strain each of C. glabrata (142.91), Candida parapsilosis (111.96), Candida krusei (132.91), C. tropicalis (110.96), Candida lusitaniae (111.92), Fusarium solani (152.89), Aspergillus fumigatus (168.95), Rhizopus arrhizus (117.89), Paecilomyces lilacinus (137.90), and Aspergillus flavus (112.96). Antifungal susceptibility testing was performed using an RPMI-1640 medium (Sigma Chemical Co., St. Louis, Mo.) with glutamine, without sodium bicarbonate, and buffered at pH 7.0 with 0.165 M morpholinepropanesulfonic acid (MOPS).
(§5) Minimum Fungicidal Concentration (MFC) experiments were adapted from a method by McGinnis (McGinnis, M. R., (1980) "Susceptibility testing and bioassay procedure", p.431, Academic Press, Inc., New York). Briefly, 10 μl aliquots from tubes with growth inhibition were plated onto Sabouraud agar plates.

[2] = system: Candida albicans; test: as above; assay type: cell-based; settings: for MIC: read-out: MIC80 (Minimum inhibitory concentration 80%); for MFC: read-out: MFC (Minimum fungicidal concentration)
From the text: as §1, §2, §3, §4, §5

[3] = Table 1, three or fewer colonies
[4] = Tables 2-7, three or fewer colonies

Row | Structure (SMILES) | MIC ([1]; 35° C., 72 hr) [mg/L] | MIC ([2]; 35° C., reading at 48 hours) [mg/L] | MFC [1, 3] [mg/L] | MFC ([2]; three or fewer colonies) [mg/L] | MFC [1, 4] [mg/L] | MIC ([1]; 72 h) [mg/L] | MFC (Minimum fungicidal concentration) [1, 4] [mg/L] | MFC [1] [mg/L] | MIC ([2]; 48 h) [mg/L] | MFC [2] [mg/L]
1 | N=C(N)c1ccc(OCCCCOc2ccc(C(=N)N)cc2)cc1 [Compound 11] | 3.12 (≈ 9.56 µM) | 25 (≈ 76.6 µM) | 6.25 (≈ 19.1 µM) | 50 (≈ 153 µM) |  |  |  |  |  | 
2 | CCC(CC)NC(=N)c1ccc(-c2ccc(-c3ccc(C(=N)NC(CC)CC)cc3)o2)cc1 [Compound 26] | 12.5 (≈ 28.1 µM) | 100 (≈ 225 µM) |  | 100 (≈ 225 µM) | 12.5 (≈ 28.1 µM) |  |  |  |  | 
3 | N=C(N)c1ccc(OCCCCCOc2ccc(C(=N)N)cc2)cc1 [Pentamidine, reference compound] |  |  |  |  |  | 3.12 (≈ 9.16 µM) | 6.25 (≈ 18.4 µM) | 6.25 (≈ 18.4 µM) | 0.78 (≈ 2.29 µM) | 1.56 (≈ 4.58 µM)
4 | c1cc2nc(Cc3nc4ccc(C5=NCCN5)cc4[nH]3)[nH]c2cc1C1=NCCN1 [Compound 29] | 100 (≈ 260 µM) | > 100 |  | > 100 | > 100 |  |  |  |  | 
5 | Cc1cc(-c2nc3ccc(C(=N)N)cc3[nH]2)c(C)cc1-c1nc2ccc(C(=N)N)cc2[nH]1 [Compound 50] | 25 (≈ 59.2 µM) | 25 (≈ 59.2 µM) |  | 100 (≈ 237 µM) | 25 (≈ 59.2 µM) |  |  |  |  | 
6 | COc1cc(C(N)=NO)ccc1OCCCOc1ccc(C(N)=NO)cc1OC [Compound 6] | > 100 | > 100 |  |  |  |  |  |  |  | 
7 | CC(C)NC(=N)c1cccc(-c2ccc(-c3cccc(C(=N)NC(C)C)c3)o2)c1 [Compound 40] | 6.25 (≈ 16.1 µM) | 100 (≈ 257 µM) |  | > 100 | 6.25 (≈ 16.1 µM) |  |  |  |  | 
8 | CN(C)CCCN(C)C(=O)c1ccc(-c2ccc(-c3ccc(C(=O)N(C)CCCN(C)C)cc3)o2)cc1 [Compound 37] | > 110 | > 100 |  |  |  |  |  |  |  | 
9 | N=C(N)c1ccc(NCCCNc2ccc(C(=N)N)cc2[N+](=O)[O-])c([N+](=O)[O-])c1 [Compound 10] |  |  |  |  |  | 100 (≈ 250 µM) |  | 100 (≈ 250 µM) | 100 (≈ 250 µM) | 100 (≈ 250 µM)
10 | COc1cc(C(=N)N)ccc1OCCCCOc1ccc(C(=N)N)cc1OC [Compound 12] | 50 (≈ 129 µM) | > 100 | > 100 | > 100 |  |  |  |  |  | 
11 | CC(C)NC(=N)c1ccc(-c2ccc(-c3ccc(C(=N)NC(C)C)cc3)o2)cc1 [Compound 25] | 6.25 (≈ 16.1 µM) | 25 (≈ 64.3 µM) |  | 50 (≈ 129 µM) | 50 (≈ 129 µM) |  |  |  |  | 
12 | N=C(N)c1ccc2nc(-c3ccc(-c4nc5ccc(C(=N)N)cc5[nH]4)cc3)[nH]c2c1 [Compound 47] | 0.39 (≈ 0.989 µM) | > 100 |  |  | 0.39 (≈ 0.989 µM) |  |  |  |  | 
13 | CN1CCN(c2ccc3nc(-c4ccc5nc(-c6ccc(O)cc6)[nH]c5c4)[nH]c3c2)CC1 [Compound 58] |  |  |  |  |  | 100 (≈ 236 µM) |  | > 100 | 25 (≈ 58.9 µM) | 50 (≈ 118 µM)
14 | N=C(N)c1cccc(OCCCOc2cccc(C(=N)N)c2)c1 [Compound 7] |  | > 100 |  | > 100 |  |  |  |  |  | 

Further lines, with some results ahead:

Row | MIC ([1]; 35° C., 72 hr) [mg/L] | MIC ([2]; 35° C., reading at 48 hours) [mg/L] | Structure (SMILES) | MFC [1, 3] [mg/L] | MFC ([2]; three or fewer colonies) [mg/L] | MFC [1, 4] [mg/L] | MIC ([1]; 72 h) [mg/L] | MFC (Minimum fungicidal concentration) [1, 4] [mg/L] | MFC [1] [mg/L] | MIC ([2]; 48 h) [mg/L] | MFC [2] [mg/L]
15 | 25 (≈ 73.4 µM) | 12.5 (≈ 36.7 µM) | N=C(N)c1ccc(NCCCNc2ccc(C(=N)N)cc2N)c(N)c1 [Compound 9] | 50 (≈ 147 µM) | > 100 |  |  |  |  |  | 
16 | 0.78 | 0.78 | N=C(NC1CCCC1)c1ccc2nc(-c3ccc4oc(-c5nc6ccc(C(=N)NC7CCCC7)cc6[nH]5)cc4c3)[nH]c2c1 [Compound 56, 2,5-Bis[2-(5-N-cyclopentylamidino)benzimidazoyl]benzo[b]furan hydrochloride] |  | 0.78 | 0.78 |  |  |  |  | 
17 | ≤ 0.09 | 0.39 (≈ 0.881 µM) | N=C(N)c1ccc(OCCCCOc2ccc(-c3nc4ccc(C(=N)N)cc4[nH]3)cc2)cc1 [Compound 65] |  | 3.12 (≈ 7.05 µM) | 1.56 (≈ 3.53 µM) |  |  |  |  | 
18 | 0.78 (≈ 1.75 µM) | 0.78 (≈ 1.75 µM) | c1cc2nc(-c3ccc(-c4nc5ccc(C6=NCCN6)cc5[nH]4)cc3)[nH]c2cc1C1=NCCN1 [Compound 48] |  | 6.25 (≈ 14 µM) | 1.56 (≈ 3.49 µM) |  |  |  |  | 
19 | 1.56 (≈ 4.02 µM) | 12.5 (≈ 32.2 µM) | CCCNC(=N)c1ccc(-c2ccc(-c3ccc(C(=N)NCCC)cc3)o2)cc1 [Compound 24] |  | 12.5 (≈ 32.2 µM) | 6.25 (≈ 16.1 µM) |  |  |  |  | 
20 | 0.78 (≈ 2.3 µM) | ≤ 0.09 | N=C(N)c1ccc(NCCCCCNc2ccc(C(=N)N)cc2)cc1 [Compound 18] | 1.56 (≈ 4.61 µM) | 0.39 (≈ 1.15 µM) |  |  |  |  |  | 
21 | 3.12 (≈ 7.49 µM) | 12.5 (≈ 30 µM) | CC(C)CNC(=N)c1ccc(-c2ccc(-c3ccc(C(=N)NCC(C)C)cc3)o2)cc1 [Compound 27] |  |  | 12.5 (≈ 30 µM) |  |  |  |  | 
22 | 0.78 (≈ 2.11 µM) | 0.78 (≈ 2.11 µM) | N=C(N)c1ccc(Oc2ccc(-c3nc4ccc(C(=N)N)cc4[nH]3)cc2)cc1 [Compound 67] |  | 0.78 (≈ 2.11 µM) | 6.25 (≈ 16.9 µM) |  |  |  |  | 
23 | 12.5 (≈ 33.6 µM) | 12.5 (≈ 33.6 µM) | COc1cc(C(=N)N)ccc1OCCCOc1ccc(C(=N)N)cc1OC [Compound 4] | 12.5 (≈ 33.6 µM) | 50 (≈ 134 µM) |  |  |  |  |  | 
24 | 6.25 (≈ 16.5 µM) | 0.78 (≈ 2.06 µM) | c1cc(C2=NCCN2)ccc1OCCCCOc1ccc(C2=NCCN2)cc1 [Compound 14] | 12.5 (≈ 33 µM) | 1.56 (≈ 4.12 µM) |  |  |  |  |  | 
25 | 0.39 (≈ 0.854 µM) | 0.78 (≈ 1.71 µM) | N=C(N)c1ccc(OCCCCCOc2ccc(-c3nc4ccc(C(=N)N)cc4[nH]3)cc2)cc1 [Compound 66] |  | 1.56 (≈ 3.42 µM) | 6.25 (≈ 13.7 µM) |  |  |  |  | 
26 | 0.78 (≈ 1.64 µM) | 1.56 (≈ 3.29 µM) | c1cc2nc(-c3ccc(-c4nc5ccc(C6=NCCCN6)cc5[nH]4)cc3)[nH]c2cc1C1=NCCCN1 [Compound 49] |  | 3.12 (≈ 6.57 µM) | 1.56 (≈ 3.29 µM) |  |  |  |  | 
27 | 0.19 (≈ 0.443 µM) | 0.39 (≈ 0.91 µM) | N=C(N)c1ccc(OCCCOc2ccc(-c3nc4ccc(C(=N)N)cc4[nH]3)cc2)cc1 [Compound 64] |  | 0.78 (≈ 1.82 µM) | 0.78 (≈ 1.82 µM) |  |  |  |  | 
28 | 1.56 | 1.56 | N=C(NC1CCCC1)c1ccc2nc(-c3ccc(-c4ccc(-c5ccc(-c6nc7ccc(C(=N)NC8CCCC8)cc7[nH]6)cc5)o4)cc3)[nH]c2c1 [Compound 54, 4,4'-Bis[2-(5-N-cyclopentylamidino)benzimidazoyl]-2,5-diphenylfuran hydrochloride] |  | 1.56 | 6.25 |  |  |  |  | 
29 | 0.78 (≈ 2.04 µM) | 0.78 (≈ 2.04 µM) | N=C(N)c1ccc(NCCCCCCNc2ccc(C(=N)N)cc2N)c(N)c1 [Compound 20] | 3.12 (≈ 8.16 µM) | 3.12 (≈ 8.16 µM) |  |  |  |  |  | 
30 | 6.25 (≈ 17.5 µM) | 6.25 (≈ 17.5 µM) | N=C(N)c1ccc(OCCCC(O)COc2ccc(C(=N)N)cc2)cc1 (centres unmarked) [Compound 21] |  | 12.5 (≈ 35.1 µM) | 12.5 (≈ 35.1 µM) |  |  |  |  | 

From patent publication US6326395A, “Antifungal activity of dicationic molecules” (priority 1999, dated 2001)
